Experimental data as given in ChEMBL document CHEMBL4184249, “Structural development of tetrachlorophthalimides as liver X receptor β (LXRβ)-selective agonists with improved aqueous solubility” (Bioorg Med Chem Lett, 2018).
Calls of active or inactive are those of the source. The calls are words filed in the database; no cut-off is given here.

Experiments:
Format in all cases: cell-based
[1] = target: T1, Oxysterols receptor LXR-beta (Homo sapiens) (UniProt P55055); assay: Agonist activity at LXRbeta in human THP1 cells assessed as increase in ABCA1 mRNA expression at 0.1 uM by real-time quantitative RT-PCR method
T1 sequence (whole entry): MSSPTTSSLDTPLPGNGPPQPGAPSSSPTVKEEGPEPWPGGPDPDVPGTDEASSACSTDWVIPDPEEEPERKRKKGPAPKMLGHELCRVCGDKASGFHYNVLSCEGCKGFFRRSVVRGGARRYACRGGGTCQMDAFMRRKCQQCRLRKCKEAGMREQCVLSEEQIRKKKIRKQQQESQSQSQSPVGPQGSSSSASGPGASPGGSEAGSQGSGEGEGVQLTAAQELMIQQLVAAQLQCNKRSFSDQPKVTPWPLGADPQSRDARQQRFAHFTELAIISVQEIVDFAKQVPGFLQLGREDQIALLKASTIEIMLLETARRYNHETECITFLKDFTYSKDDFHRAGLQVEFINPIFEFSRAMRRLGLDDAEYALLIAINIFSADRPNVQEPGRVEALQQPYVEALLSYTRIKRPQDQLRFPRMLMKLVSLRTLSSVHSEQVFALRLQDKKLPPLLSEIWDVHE

[2] = target: T2, Retinoic acid receptor gamma (Homo sapiens) (UniProt P13631); assay: Agonist activity at GAL4-tagged RARgamma (unknown origin) expressed in HEK293 cells co-expressing CMX-beta-galactosidase at 0.3 to 30 uM incubated for 16 hrs by luciferase reporter gene assay
T2 sequence (whole entry): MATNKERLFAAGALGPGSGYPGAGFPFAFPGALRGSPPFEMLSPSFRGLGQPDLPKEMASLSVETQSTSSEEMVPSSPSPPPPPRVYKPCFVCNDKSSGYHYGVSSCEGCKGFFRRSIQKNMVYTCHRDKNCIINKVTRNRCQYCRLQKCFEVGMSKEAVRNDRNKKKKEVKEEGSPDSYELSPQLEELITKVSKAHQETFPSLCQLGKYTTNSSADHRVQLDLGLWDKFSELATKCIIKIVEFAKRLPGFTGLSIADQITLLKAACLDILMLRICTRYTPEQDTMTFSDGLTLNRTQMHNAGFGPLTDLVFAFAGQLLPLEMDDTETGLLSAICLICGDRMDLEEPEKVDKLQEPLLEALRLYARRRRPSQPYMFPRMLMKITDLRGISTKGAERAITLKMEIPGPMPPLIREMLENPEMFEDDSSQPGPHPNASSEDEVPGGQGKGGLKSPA

[3] = target: T3, Retinoic acid receptor RXR-alpha (Homo sapiens) (UniProt P19793); assay: Agonist activity at GAL4-tagged RXRalpha (unknown origin) expressed in HEK293 cells co-expressing CMX-beta-galactosidase at 0.3 to 30 uM incubated for 16 hrs by luciferase reporter gene assay
T3 sequence (whole entry): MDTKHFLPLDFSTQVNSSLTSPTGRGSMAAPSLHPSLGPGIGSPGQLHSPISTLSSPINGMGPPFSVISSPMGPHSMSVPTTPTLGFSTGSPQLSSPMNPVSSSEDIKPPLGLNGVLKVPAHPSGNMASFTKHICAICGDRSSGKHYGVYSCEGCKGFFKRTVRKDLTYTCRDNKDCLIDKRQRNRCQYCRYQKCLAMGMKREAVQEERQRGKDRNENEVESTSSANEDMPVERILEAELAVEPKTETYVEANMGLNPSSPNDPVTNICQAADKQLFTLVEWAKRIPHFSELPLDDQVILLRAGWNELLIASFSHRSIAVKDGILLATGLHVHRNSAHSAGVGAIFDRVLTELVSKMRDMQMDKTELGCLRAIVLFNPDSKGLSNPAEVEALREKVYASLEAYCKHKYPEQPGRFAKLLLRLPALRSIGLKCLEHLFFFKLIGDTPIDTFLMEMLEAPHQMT

[4] = target: T4, Bile acid receptor (Homo sapiens) (UniProt Q96RI1); assay: Agonist activity at GAL4-tagged FXR (unknown origin) expressed in HEK293 cells co-expressing CMX-beta-galactosidase at 0.3 to 30 uM incubated for 16 hrs by luciferase reporter gene assay
T4 sequence (whole entry): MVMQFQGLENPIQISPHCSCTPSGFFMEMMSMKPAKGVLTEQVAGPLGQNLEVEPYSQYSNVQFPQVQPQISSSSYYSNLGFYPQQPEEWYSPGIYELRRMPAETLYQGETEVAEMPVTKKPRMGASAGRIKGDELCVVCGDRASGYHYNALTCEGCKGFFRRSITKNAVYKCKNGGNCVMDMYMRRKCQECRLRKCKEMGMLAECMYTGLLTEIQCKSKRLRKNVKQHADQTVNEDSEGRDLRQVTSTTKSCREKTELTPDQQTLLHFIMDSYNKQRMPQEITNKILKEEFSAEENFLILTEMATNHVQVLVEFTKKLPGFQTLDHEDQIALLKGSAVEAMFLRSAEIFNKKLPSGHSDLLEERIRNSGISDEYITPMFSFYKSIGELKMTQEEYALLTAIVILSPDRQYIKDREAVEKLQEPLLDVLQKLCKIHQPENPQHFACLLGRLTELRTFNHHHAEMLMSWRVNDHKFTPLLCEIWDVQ

[5] = target: T5, Retinoic acid receptor RXR-beta (Homo sapiens) (UniProt P28702); assay: Agonist activity at GAL4-tagged RXRbeta (unknown origin) expressed in HEK293 cells co-expressing CMX-beta-galactosidase at 0.3 to 30 uM incubated for 16 hrs by luciferase reporter gene assay
T5 sequence (whole entry): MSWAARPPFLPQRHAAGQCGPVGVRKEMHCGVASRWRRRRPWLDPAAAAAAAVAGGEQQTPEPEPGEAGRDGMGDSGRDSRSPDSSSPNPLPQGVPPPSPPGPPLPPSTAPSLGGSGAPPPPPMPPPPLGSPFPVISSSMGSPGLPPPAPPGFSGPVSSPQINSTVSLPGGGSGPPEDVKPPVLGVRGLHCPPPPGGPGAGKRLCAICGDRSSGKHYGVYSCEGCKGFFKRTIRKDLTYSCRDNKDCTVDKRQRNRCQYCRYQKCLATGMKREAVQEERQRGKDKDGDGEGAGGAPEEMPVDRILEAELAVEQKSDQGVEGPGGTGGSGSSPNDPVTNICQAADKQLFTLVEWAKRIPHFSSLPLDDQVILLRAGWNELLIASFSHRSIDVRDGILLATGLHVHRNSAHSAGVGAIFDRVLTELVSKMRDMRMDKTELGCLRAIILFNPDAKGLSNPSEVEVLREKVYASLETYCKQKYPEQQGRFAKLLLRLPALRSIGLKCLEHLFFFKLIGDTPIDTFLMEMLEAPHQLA

[6] = target: T1, Oxysterols receptor LXR-beta (Homo sapiens); assay: Agonist activity at human LXRbeta expressed in HEK293 cells co-expressing CMX-beta-galactosidase incubated for 16 hrs by luciferase reporter gene assay relative to T0901317

**Q.** For `O=C1c2c(Cl)c(Cl)c(Cl)c(Cl)c2C(=O)N1c1ccccc1/C=C/c1cccs1`, which Activity [1] is on record?
**A.** Active

**Q.** What about the Activity [2] of the same compound?
**A.** inactive

**Q.** What about the Activity [3] of the same compound?
**A.** inactive

**Q.** What about the Efficacy [4] of the same compound?
**A.** 9%

**Q.** What about the Activity [5] of the same compound?
**A.** inactive

**Q.** What about the Efficacy [6] of the same compound?
**A.** 149%
